Measured values as given in article PMC8369186, “Ligand-Based and Docking-Based Virtual Screening of MDM2 Inhibitors as Potent Anticancer Agents” (Computational and Mathematical Methods in Medicine, 2021).
Like-named read-outs stand apart in the source and are kept apart here.

Legend:
[1] = molecular target: MDM2 (Homo sapiens, UniProt Q00987); experiment: MDM2 binding assay (fluorescence polarization); settings: for Inhibition (200 μM, %): 200 μM compound; for inhibition at 200 µM: read-out: Inhibition (200 μM, %), 200 μM compound
Protocol: The MDM2 binding tests of all 17 compounds were carried out by a fluorescence polarization assay.
30 nM preincubated (30 min) MDM2 and 10 nM PMDM-F peptide in reaction buffer (100 μL, potassium phosphate, 100 mM; bovine gamma globulin, […]; sodium azide, 0.02%) were added into a 96-well plate containing tested compounds at pH 7.5. […] The Ki values were calculated according to a reported method.

[2] = molecular target: T1, Cathepsin K (Homo sapiens, UniProt P43235); experiment: Cathepsin K inhibitory activity; type: biochemical
T1 sequence (P43235 115-329): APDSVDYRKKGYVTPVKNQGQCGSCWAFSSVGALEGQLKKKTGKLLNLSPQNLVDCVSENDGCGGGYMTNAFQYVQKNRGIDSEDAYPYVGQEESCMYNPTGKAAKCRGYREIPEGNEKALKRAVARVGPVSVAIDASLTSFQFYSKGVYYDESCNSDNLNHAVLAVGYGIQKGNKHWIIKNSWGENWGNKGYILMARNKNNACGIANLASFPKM

[3] = tested on: HCT116 (p53 +/+) cells; experiment: cells; type: cell-based, human; settings: read-out: IC50 (μM) ± SD HCT116 (p53 +/+)
Protocol: (§1) Compounds were tested at six concentrations (0.001–100 μM).
(§2) The cells were seeded into a 96-well plate and incubated at 37°C in 5% CO2 for 24 h, after which the test compounds were added to the culture medium and the cells were incubated for 48 h. 20 μL fresh MTT was added to each well, and the cells were incubated at 37°C in 5% CO2 for 4 h. After removing the culture medium, 150 μL DMSO was added to dissolve the formazan crystals. The absorbance at 540 nm was measured using a microplate reader. The results, expressed as IC50 values, were the average of three determinations and were calculated using nonlinear regression analysis.

[4] = tested on: HCT116 (p53 -/-) cells; experiment: cells; type: cell-based, human; settings: read-out: IC50 (μM) ± SD HCT116 (p53 -/-)
Protocol: as §1, §2

[5] = tested on: MCF7 (p53 +/+) cells; experiment: cells; type: cell-based, human; settings: read-out: IC50 (μM) ± SD MCF7 (p53 +/+)
Protocol: as §1, §2

[6] = tested on: MCF7 (p53 -/-) cells; experiment: cells; type: cell-based; settings: Homo sapiens, read-out: IC50 (μM) ± SD MCF7 (p53 -/-)
Protocol: as §1, §2

[7] = tested on: human MDM2; settings: training set, cited from earlier work; for IC50: ref 24 (TS-1), 25 (TS-2), 12 (TS-3), 26 (TS-4), 8 (TS-6), 28 (TS-7), read-out: Potency human MDM2 (nM), IC50
[8] = Homo sapiens, HCT-116, MTT, 48 h

MDM2, sequence (Q00987 whole entry): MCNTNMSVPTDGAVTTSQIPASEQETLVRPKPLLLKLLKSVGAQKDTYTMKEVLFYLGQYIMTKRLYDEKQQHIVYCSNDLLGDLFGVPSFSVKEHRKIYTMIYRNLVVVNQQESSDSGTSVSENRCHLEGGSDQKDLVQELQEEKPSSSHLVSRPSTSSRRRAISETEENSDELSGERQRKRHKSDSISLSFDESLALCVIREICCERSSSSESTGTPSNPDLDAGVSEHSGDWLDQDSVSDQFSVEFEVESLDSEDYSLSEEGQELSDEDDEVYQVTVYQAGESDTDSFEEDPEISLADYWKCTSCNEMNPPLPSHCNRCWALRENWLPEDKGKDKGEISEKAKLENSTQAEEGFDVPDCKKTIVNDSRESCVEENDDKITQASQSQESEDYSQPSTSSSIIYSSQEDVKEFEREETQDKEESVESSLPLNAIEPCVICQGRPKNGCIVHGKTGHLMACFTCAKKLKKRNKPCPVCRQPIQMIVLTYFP

Row | Compound | Ki [1] [µM] | Inhibition (200 μM, %) ([1]; 200 µM) [%] | inhibition at 200 µM [1] [%] | IC50 ([2]; read-out: Cathepsin K IC50) [µM] | further results
1 | C=CCn1c(SCC(=O)N2N=C(c3ccco3)CC2c2ccco2)nnc1-c1ccncc1 (stereo not shown) [Compound 2, 4-allyl-5-(4-pyridinyl)-4H-1,2,4-triazol-3-yl 2-[3,5-di(2-furyl)-4,5-dihydro-1H-pyrazol-1-yl]-2-oxoethyl sulfide] | 9.5 | 95.8 | > 80 | > 200 | IC50 [3, 8]: 35.5 ± 1.48 µM; IC50 [4, 8]: 58.2 ± 4.57 µM; IC50 ([5]; Homo sapiens, MCF7, MTT, 48 h): > 100 µM; IC50 ([6]; MCF7, MTT, 48 h): > 100 µM
2 | O=S(=O)(Nc1nc2ccccc2nc1Nc1cccc(O)c1)c1ccc(Cl)cc1 [Compound 5, 4-chloro-N-[3-(3-hydroxyanilino)-2-quinoxalinyl]benzenesulfonamide] | 8.5 | 90.31 | > 80 | > 200 | IC50 ([3]; Homo sapiens, HCT-116, 48 h): 17.4 ± 1.8 µM; IC50 ([4]; Homo sapiens, HCT-116, 48 h): 40.8 ± 3.54 µM; IC50 ([5]; Homo sapiens, MCF7, 48 h): 40.2 ± 1.77 µM; IC50 ([6]; MCF7, 48 h): 56.4 ± 4.12 µM
3 | CCOC(=O)/C=C1\NC(C)(C)Cc2cc(OC)c(OC)cc21 [Compound 6, Ethyl (6,7-dimethoxy-3,3-dimethyl-3,4-dihydro-1(2H)-isoquinolinylidene)acetate] | > 200 | 46.6 | < 50 | > 200 | –
4 | CCc1nnc(NC(=O)CSc2nnc(COc3ccccc3)n2-c2ccc(C)cc2)s1 [Compound 7, N-(5-ethyl-1,3,4-thiadiazol-2-yl)-2-{[4-(4-methylphenyl)-5-(phenoxymethyl)-4H-1,2,4-triazol-3-yl]sulfanyl}acetamide] | 98.3 | – | 63.7 | > 200 | –
5 | C=CCn1c(COc2ccccc2)nnc1SC(C)C(=O)NN=Cc1ccccc1F (stereo not shown) [Compound 8, 2-{[4-allyl-5-(phenoxymethyl)-4H-1,2,4-triazol-3-yl]sulfanyl}-N'-(2-fluorobenzylidene)propanohydrazide] | 23.4 | 84.7 | > 80 | > 200 | IC50 [3, 8]: > 100 µM; IC50 [4, 8]: > 100 µM; IC50 ([5]; Homo sapiens, MCF7, MTT, 48 h): > 100 µM; IC50 ([6]; MCF7, MTT, 48 h): > 100 µM
6 | COc1cccc(OCC(=O)N(Cc2nc(-c3ccccc3)no2)C2CCCCC2)c1 [Compound 10, N-cyclohexyl-2-(3-methoxyphenoxy)-N-[(3-phenyl-1,2,4-oxadiazol-5-yl)methyl]acetamide] | 3.2 | 96.5 | > 80 | > 200 | fold less potent in MDM2 binding affinity than nutlin-3a ([1]; versus nutlin-3a): approximately 20 fold; IC50 ([3]; Homo sapiens, HCT-116, 48 h): 12.6 ± 2.32 µM; IC50 ([4]; Homo sapiens, HCT-116, 48 h): 24.1 ± 2.31 µM; IC50 ([5]; Homo sapiens, MCF7, 48 h): 19.4 ± 2.26 µM; IC50 ([6]; MCF7, MTT, 48 h): 26.7 ± 1.65 µM
7 | [N-]=[N+]=CC(=O)C(O)(c1ccccc1)C(Cl)c1ccccc1 (stereo not shown) [Compound 12, 4-chloro-1-diazo-3-hydroxy-3,4-diphenyl-2-butanone] | > 200 | 18.8 | – | > 200 | Inhibition (200 μM, %) ([1]; listed as AB-131/42300827, 200 µM): < 50%
8 | COC(=O)C1C(CBr)N1N1C(=O)c2ccccc2C1=O (stereo not shown) [Compound 13, Methyl 3-(bromomethyl)-1-(1,3-dioxo-1,3-dihydro-2H-isoindol-2-yl)-2-aziridinecarboxylate] | > 200 | 42.9 | < 50 | – | IC50 [2]: > 200 µM
9 | CCOC(=O)c1nnn(-c2nonc2N)c1CNc1ccccc1 [Compound 14, Ethyl 1-(4-amino-1,2,5-oxadiazol-3-yl)-5-(anilinomethyl)-1H-1,2,3-triazole-4-carboxylate] | 127 | – | 68.6 | > 200 | –
10 | O=C(O)CC1c2ccccc2CCN1S(=O)(=O)c1ccccc1 (stereo not shown) [Compound 15, [2-(phenylsulfonyl)-1,2,3,4-tetrahydroisoquinolin-1-yl]acetic acid] | 23.1 | 82.1 | > 80 | > 200 | IC50 [3, 8]: 28.1 ± 2.53 µM; IC50 [4, 8]: 51.7 ± 4.15 µM; IC50 ([5]; Homo sapiens, MCF7, MTT, 48 h): > 100 µM; IC50 ([6]; MCF7, MTT, 48 h): > 100 µM
11 | CCOC(=O)c1c(-c2ccccc2)oc2ccc(O)c(CN(C)C)c12 [Compound 17, Ethyl 4-[(dimethylamino)methyl]-5-hydroxy-2-phenyl-1-benzofuran-3-carboxylate] | > 200 | 47.3 | < 50 | > 200 | –
12 | COc1ccc(C2=N[C@@H](c3ccc(Cl)cc3)[C@@H](c3ccc(Cl)cc3)N2C(=O)N2CCNC(=O)C2)c(OC(C)C)c1 [Nutlin-3a, reference compound] | – | – | – | – | IC50 ([3]; MTT, 48 h): 18.1 ± 2.17 µM; IC50 ([4]; MTT, 48 h): 40.7 ± 1.47 µM; IC50 ([5]; MTT, 48 h): 32.2 ± 1.49 µM
13 | CC(C)(F)C[C@H](N[C@@H](c1ccc(-c2ccc(S(C)(=O)=O)cc2)cc1)C(F)(F)F)C(=O)NC1(C#N)CC1 [Odancatib, reference compound] | – | – | – | 0.001 | –
14 | CCOc1cc(C(C)(C)C)ccc1C1=NC(C)(c2ccc(Cl)cc2)C(C)(c2ccc(Cl)cc2)N1C(=O)N1CCN(CCCS(C)(=O)=O)CC1 (stereo not shown) [TS-2] | – | – | – | – | IC50 [7]: 18 nM
15 | CC(C)(C)C[C@H]1N[C@@H](C(N)=O)[C@H](c2cccc(Cl)c2F)C12C(=O)Nc1cc(Cl)ccc12 (stereo partly shown) [TS-5] | – | – | – | – | Ki ([7]; read-out: Potency human MDM2 (nM), Ki): 3 nM
16 | O=C(NCCN1CCOCC1)c1[nH]c2cc(Cl)ccc2c1-c1c(-c2ccccc2)ncn1Cc1ccc(Cl)cc1 [TS-6] | – | – | – | – | IC50 [7]: 30 nM

Second part, led by results:

Row | Ki [1] [µM] | Inhibition (200 μM, %) ([1]; 200 µM) [%] | inhibition at 200 µM [1] [%] | IC50 ([2]; read-out: Cathepsin K IC50) [µM] | Compound | further results
17 | 43.5 | 80.2 | > 80 | > 200 | CCOC(=O)c1cc(C(C)c2ccccc2)sc1NC(=O)c1cccc(COc2ccccc2Cl)c1 (stereo not shown) [Compound 1, Ethyl 2-({3-[(2-chlorophenoxy)methyl]benzoyl}amino)-5-(1-phenylethyl)-3-thiophenecarboxylate] | –
18 | 104 | – | 62.4 | > 200 | O=c1nc(SCc2nc3ccccc3n2Cc2ccccc2)[nH]c2ccccc12 [Compound 3, 2-{[(1-benzyl-1H-benzimidazol-2-yl)methyl]sulfanyl}-4(1H)-quinazolinone] | –
19 | 99.5 | – | 76.3 | > 200 | CC(C)N(C(=O)Cn1c(COc2ccc3ccccc3c2)nc2ccccc21)c1ccccc1 [Compound 4, N-isopropyl-2-{2-[(2-naphthyloxy)methyl]-1H-benzimidazol-1-yl}-N-phenylacetamide] | –
20 | > 200 | 37.6 | < 50 | > 200 | O=C(c1cc2n(n1)C(C(F)(F)F)CC(c1ccc(Br)cc1)N2)N(Cc1ccccc1)c1ccccc1 (stereo not shown) [Compound 9, N-benzyl-5-(4-bromophenyl)-N-phenyl-7-(trifluoromethyl)-4,5,6,7-tetrahydropyrazolo[1,5-a]pyrimidine-2-carboxamide] | –
21 | > 200 | 32.3 | < 50 | > 200 | COc1ccc(OCc2nnc3sc(COc4ccccc4Cl)nn23)cc1 [Compound 11, 6-[(2-chlorophenoxy)methyl]-3-[(4-methoxyphenoxy)methyl][1,2,4]triazolo[3,4-b][1,3,4]thiadiazole] | –
22 | – | – | 72.4 | > 200 | Cc1nn(-c2ccccc2)c(O)c1/N=N/c1cccc2ncccc12 [Compound 16, 3-Methyl-1-phenyl-4-(quinolin-5-yldiazenyl)-1H-pyrazol-5-ol] | Ki ([1]; fluorescence polarization, eight concentrations 0.091–200 μM): 64.6 µM
